Source: US10167262B2, “Herbicidal substituted 3-arylpyrazoles” (FMC CORPORATION, priority 2014, dated 2019)

What was measured:
Type in all cases: in vivo
[1] = test system: johnsongrass (Sorghum halepense); assay: Test E pre-/postemergence greenhouse test, plant response rating 0-100; conditions: Preemergence, scale 0 to 100
[2] = test system: ducksalad (Heteranthera limosa); assay: Test B flooded paddy test, plant response rating 0-100; conditions: Flood, 250 g ai/ha; scale 0 to 100 (0 no effect, 100 complete control); 13 to 15 days
Summary of the method: (§1)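 Pots were flooded to 3 cm above the soil surface at treatment, compound applied directly to the paddy water, and that depth held throughout. Plants were kept in a greenhouse for 13 to 15 days, then visually rated against untreated controls.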

[3] = test system: sedge, umbrella (small-flower umbrella sedge, Cyperus difformis); assay: as above; conditions: Flood, 250 g ai/ha; scale 0 to 100 (0 no effect, 100 complete control); 13 to 15 days
Summary of the method: as §1

[4] = test system: rice (Oryza sativa); assay: as above; conditions: Flood, 250 g ai/ha; scale 0 to 100 (0 no effect, 100 complete control); 13 to 15 days
Summary of the method: as §1

[5] = test system: barnyardgrass (Echinochloa crus-galli); assay: as above; conditions: Flood, 250 g ai/ha; scale 0 to 100 (0 no effect, 100 complete control); 13 to 15 days
Summary of the method: as §1

[6] = test system: kochia (Kochia scoparia); assay: Test E pre-/postemergence greenhouse test, plant response rating 0-100; conditions: Preemergence, scale 0 to 100
Summary of the method: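 Pre: seeded silt loam sprayed; post: 1–4-leaf plants (2–18 cm) in peat-based mix sprayed. Formulation: non-phytotoxic solvent + surfactant. Greenhouse 14–21 d; visual rating vs controls, 0 = no effect, 100 = complete control.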

[7] = test system: smartweed (ladysthumb smartweed, Polygonum persicaria); assay: as above; conditions: Postemergence, scale 0 to 100
[8] = test system: yellow nutsedge (Cyperus esculentus); assay: as above; conditions: Preemergence, scale 0 to 100
[9] = test system: large (Lg) crabgrass (Digitaria sanguinalis); assay: as above; conditions: Preemergence, scale 0 to 100

## O=C(c1ccccc1)c1cn(S(=O)(=O)CCl)nc1-c1cc(Cl)cc(Cl)c1 [Compound 1]
[1]; 31 g ai/ha
  Johnsongrass plant response rating: 0
[1]; 62 g ai/ha
  Johnsongrass plant response rating: 0
[1]; 125 g ai/ha
  Johnsongrass plant response rating: 0
[1]; 250 g ai/ha
  Johnsongrass plant response rating: 20
[1]; 500 g ai/ha
  Johnsongrass plant response rating: 20
[2]
  Plant response rating, Ducksalad: 0
[3]
  Plant response rating, Sedge, Umbrella: 0
[4]
  Plant response rating, Rice: 0
[5]
  Plant response rating, Barnyardgrass: 0
[6]; 31 g ai/ha
  Kochia plant response rating: 0
[6]; 62 g ai/ha
  Kochia plant response rating: 0
[6]; 125 g ai/ha
  Kochia plant response rating: 0
[6]; 250 g ai/ha
  Kochia plant response rating: 50
[6]; 500 g ai/ha
  Kochia plant response rating: 98
[7]; 31 g ai/ha
  Plant response rating, Smartweed: 0
[7]; 62 g ai/ha
  Plant response rating, Smartweed: 35
[7]; 125 g ai/ha
  Plant response rating, Smartweed: 50
[7]; 250 g ai/ha
  Plant response rating, Smartweed: 75
[8]; 31 g ai/ha
  Nutsedge, Yellow plant response rating: 0
[8]; 62 g ai/ha
  Nutsedge, Yellow plant response rating: 0
[8]; 125 g ai/ha
  Nutsedge, Yellow plant response rating: 0
[8]; 250 g ai/ha
  Nutsedge, Yellow plant response rating: 0
[9]; 31 g ai/ha
  Crabgrass, Large plant response rating: 0
[9]; 62 g ai/ha
  Crabgrass, Large plant response rating: 0
[9]; 125 g ai/ha
  Crabgrass, Large plant response rating: 0
[9]; 250 g ai/ha
  Crabgrass, Large plant response rating: 0
[9]; 500 g ai/ha
  Crabgrass, Large plant response rating: 0

## O=C(c1ccccc1)c1cn(S(=O)(=O)C(F)(F)F)nc1-c1cc(Cl)cc(Cl)c1 [Compound 2]
[1]; 31 g ai/ha
  Johnsongrass plant response rating: 0
[1]; 62 g ai/ha
  Johnsongrass plant response rating: 0
[1]; 125 g ai/ha
  Johnsongrass plant response rating: 0
[1]; 250 g ai/ha
  Johnsongrass plant response rating: 0
[1]; 500 g ai/ha
  Johnsongrass plant response rating: 0
[2]
  Plant response rating, Ducksalad: 0
[3]
  Plant response rating, Sedge, Umbrella: 0
[4]
  Plant response rating, Rice: 0
[5]
  Plant response rating, Barnyardgrass: 0
[6]; 31 g ai/ha
  Kochia plant response rating: 0
[6]; 62 g ai/ha
  Kochia plant response rating: 0
[6]; 125 g ai/ha
  Kochia plant response rating: 0
[6]; 250 g ai/ha
  Kochia plant response rating: 65
[6]; 500 g ai/ha
  Kochia plant response rating: 90
[7]; 31 g ai/ha
  Plant response rating, Smartweed: 0
[7]; 62 g ai/ha
  Plant response rating, Smartweed: 65
[7]; 125 g ai/ha
  Plant response rating, Smartweed: 75
[7]; 250 g ai/ha
  Plant response rating, Smartweed: 95
[8]; 31 g ai/ha
  Nutsedge, Yellow plant response rating: 0
[8]; 125 g ai/ha
  Nutsedge, Yellow plant response rating: 50
[8]; 250 g ai/ha
  Nutsedge, Yellow plant response rating: 40
[8]; 500 g ai/ha
  Nutsedge, Yellow plant response rating: 35
[9]; 31 g ai/ha
  Crabgrass, Large plant response rating: 0
[9]; 62 g ai/ha
  Crabgrass, Large plant response rating: 0
[9]; 125 g ai/ha
  Crabgrass, Large plant response rating: 0
[9]; 250 g ai/ha
  Crabgrass, Large plant response rating: 0
[9]; 500 g ai/ha
  Crabgrass, Large plant response rating: 0

## O=C(c1ccccc1)c1cn(S(=O)(=O)CC(F)(F)F)nc1-c1cc(Cl)cc(Cl)c1 [Compound 3]
[1]; 31 g ai/ha
  Johnsongrass plant response rating: 0
[1]; 62 g ai/ha
  Johnsongrass plant response rating: 0
[1]; 125 g ai/ha
  Johnsongrass plant response rating: 0
[1]; 250 g ai/ha
  Johnsongrass plant response rating: 35
[1]; 500 g ai/ha
  Johnsongrass plant response rating: 35
[2]
  Plant response rating, Ducksalad: 0
[3]
  Plant response rating, Sedge, Umbrella: 0
[4]
  Plant response rating, Rice: 0
[5]
  Plant response rating, Barnyardgrass: 0
[6]; 31 g ai/ha
  Kochia plant response rating: 0
[6]; 62 g ai/ha
  Kochia plant response rating: 20
[6]; 125 g ai/ha
  Kochia plant response rating: 25
[6]; 250 g ai/ha
  Kochia plant response rating: 50
[6]; 500 g ai/ha
  Kochia plant response rating: 70
[7]; 250 g ai/ha
  Plant response rating, Smartweed: 65
[8]; 62 g ai/ha
  Nutsedge, Yellow plant response rating: 50
[8]; 125 g ai/ha
  Nutsedge, Yellow plant response rating: 35
[8]; 500 g ai/ha
  Nutsedge, Yellow plant response rating: 75
[9]; 31 g ai/ha
  Crabgrass, Large plant response rating: 0
[9]; 62 g ai/ha
  Crabgrass, Large plant response rating: 0
[9]; 125 g ai/ha
  Crabgrass, Large plant response rating: 0
[9]; 250 g ai/ha
  Crabgrass, Large plant response rating: 0
[9]; 500 g ai/ha
  Crabgrass, Large plant response rating: 0
